Assay [1] has as its target Insulin receptor (Homo sapiens) (UniProt P06213). Description: Inhibition of human INSR catalytic domain expressed in baculovirus assessed as substrate phosphorylation using fluorescence-labelled peptides as substrate at 2 uM after 90 mins by microfluidic peptide phosphorylation assay.
Assay [2] deals with Mitogen-activated protein kinase 14 (Homo sapiens) (UniProt Q16539). Description: Inhibition of human truncated p38 alpha expressed in Escherichia coli cell assessed as substrate phosphorylation using fluorescence-labelled peptides as substrate at 0.1 uM after 90 mins by microfluidic peptide phosphorylation assay.
The target in assay [3] is Fibroblast growth factor receptor 3 (Homo sapiens) (UniProt P22607). In words: Inhibition of human FGFR3 catalytic domain expressed in baculovirus assessed as substrate phosphorylation using fluorescence-labelled peptides as substrate at 0.1 uM after 90 mins by microfluidic peptide phosphorylation assay.
The target of assay [4] is Tyrosine-protein kinase Lyn (Homo sapiens) (UniProt P07948). Description: Inhibition of human full length LYN expressed in baculovirus assessed as substrate phosphorylation using fluorescence-labelled peptides as substrate at 0.2 uM after 90 mins by microfluidic peptide phosphorylation assay.
Chain of Tyrosine-protein kinase Lyn (Homo sapiens) (P07948 2-512 limits assumed): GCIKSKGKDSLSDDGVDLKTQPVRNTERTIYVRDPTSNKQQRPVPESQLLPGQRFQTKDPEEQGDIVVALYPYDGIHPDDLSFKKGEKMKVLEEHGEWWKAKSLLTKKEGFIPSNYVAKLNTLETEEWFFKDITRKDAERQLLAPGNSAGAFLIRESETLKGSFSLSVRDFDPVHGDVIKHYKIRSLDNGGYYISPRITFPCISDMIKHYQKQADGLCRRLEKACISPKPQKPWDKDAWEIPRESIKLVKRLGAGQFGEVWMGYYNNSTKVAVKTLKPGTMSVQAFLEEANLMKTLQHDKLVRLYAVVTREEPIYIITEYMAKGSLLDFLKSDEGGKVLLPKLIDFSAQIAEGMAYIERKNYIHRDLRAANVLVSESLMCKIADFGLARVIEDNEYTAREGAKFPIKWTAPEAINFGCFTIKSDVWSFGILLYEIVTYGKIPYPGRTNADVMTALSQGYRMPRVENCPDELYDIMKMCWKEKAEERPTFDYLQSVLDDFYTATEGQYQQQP
For assay [5], the target named is Fibroblast growth factor receptor 2 (Homo sapiens) (UniProt P21802). Description: Inhibition of human FGFR2 catalytic domain expressed in baculovirus assessed as substrate phosphorylation using fluorescence-labelled peptides as substrate at 0.06 uM after 90 mins by microfluidic peptide phosphorylation assay.
Chain of Fibroblast growth factor receptor 2 (Homo sapiens) (P21802 22-821 limits assumed): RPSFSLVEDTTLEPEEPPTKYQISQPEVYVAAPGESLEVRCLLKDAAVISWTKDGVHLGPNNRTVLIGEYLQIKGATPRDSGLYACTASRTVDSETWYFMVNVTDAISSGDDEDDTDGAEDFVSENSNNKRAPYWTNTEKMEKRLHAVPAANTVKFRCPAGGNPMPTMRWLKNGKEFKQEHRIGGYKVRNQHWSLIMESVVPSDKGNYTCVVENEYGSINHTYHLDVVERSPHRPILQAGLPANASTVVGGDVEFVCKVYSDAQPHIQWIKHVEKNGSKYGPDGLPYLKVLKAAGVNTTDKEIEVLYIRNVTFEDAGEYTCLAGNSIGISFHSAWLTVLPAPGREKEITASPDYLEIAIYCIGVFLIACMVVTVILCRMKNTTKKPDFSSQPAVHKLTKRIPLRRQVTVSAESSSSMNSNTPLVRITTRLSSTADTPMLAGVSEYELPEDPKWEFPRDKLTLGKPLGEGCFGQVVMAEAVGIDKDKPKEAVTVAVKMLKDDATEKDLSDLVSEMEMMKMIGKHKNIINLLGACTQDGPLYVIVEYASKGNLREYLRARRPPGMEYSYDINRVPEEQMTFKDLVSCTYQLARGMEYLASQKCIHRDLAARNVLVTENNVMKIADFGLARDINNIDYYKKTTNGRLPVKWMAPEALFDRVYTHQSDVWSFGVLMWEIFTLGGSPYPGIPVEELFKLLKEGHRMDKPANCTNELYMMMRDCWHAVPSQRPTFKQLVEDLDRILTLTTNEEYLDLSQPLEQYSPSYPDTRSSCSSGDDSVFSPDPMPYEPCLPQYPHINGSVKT
The target in assay [6] is Proto-oncogene tyrosine-protein kinase Src (Homo sapiens) (UniProt P12931). In words: Inhibition of human full length SRC expressed in baculovirus assessed as substrate phosphorylation using fluorescence-labelled peptides as substrate at 9 uM after 90 mins by microfluidic peptide phosphorylation assay.
Chain of Proto-oncogene tyrosine-protein kinase Src (Homo sapiens) (P12931 2-536 limits assumed): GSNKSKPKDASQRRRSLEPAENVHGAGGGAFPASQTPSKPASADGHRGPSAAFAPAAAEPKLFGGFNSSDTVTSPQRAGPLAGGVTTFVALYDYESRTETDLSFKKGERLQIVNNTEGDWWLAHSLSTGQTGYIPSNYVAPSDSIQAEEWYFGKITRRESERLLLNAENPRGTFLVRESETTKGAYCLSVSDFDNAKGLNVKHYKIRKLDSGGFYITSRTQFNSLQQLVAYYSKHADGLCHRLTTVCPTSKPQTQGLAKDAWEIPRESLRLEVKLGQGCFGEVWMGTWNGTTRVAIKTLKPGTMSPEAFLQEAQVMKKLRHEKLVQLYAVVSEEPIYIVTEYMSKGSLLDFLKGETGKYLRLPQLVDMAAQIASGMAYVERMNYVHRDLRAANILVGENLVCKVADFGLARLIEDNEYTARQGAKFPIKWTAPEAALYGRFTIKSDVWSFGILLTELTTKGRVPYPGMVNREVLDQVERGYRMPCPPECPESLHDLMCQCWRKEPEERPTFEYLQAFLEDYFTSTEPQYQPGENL
The target of assay [7] is Calcium/calmodulin-dependent protein kinase type II subunit gamma (Homo sapiens) (UniProt Q13555). In words: Inhibition of human CAMK2 gamma catalytic domain expressed in baculovirus assessed as substrate phosphorylation using fluorescence-labelled peptides as substrate at 95 uM after 90 mins by microfluidic peptide phosphorylation assay.
Chain of Calcium/calmodulin-dependent protein kinase type II subunit gamma (Homo sapiens) (Q13555 whole entry, the tested form may be a part): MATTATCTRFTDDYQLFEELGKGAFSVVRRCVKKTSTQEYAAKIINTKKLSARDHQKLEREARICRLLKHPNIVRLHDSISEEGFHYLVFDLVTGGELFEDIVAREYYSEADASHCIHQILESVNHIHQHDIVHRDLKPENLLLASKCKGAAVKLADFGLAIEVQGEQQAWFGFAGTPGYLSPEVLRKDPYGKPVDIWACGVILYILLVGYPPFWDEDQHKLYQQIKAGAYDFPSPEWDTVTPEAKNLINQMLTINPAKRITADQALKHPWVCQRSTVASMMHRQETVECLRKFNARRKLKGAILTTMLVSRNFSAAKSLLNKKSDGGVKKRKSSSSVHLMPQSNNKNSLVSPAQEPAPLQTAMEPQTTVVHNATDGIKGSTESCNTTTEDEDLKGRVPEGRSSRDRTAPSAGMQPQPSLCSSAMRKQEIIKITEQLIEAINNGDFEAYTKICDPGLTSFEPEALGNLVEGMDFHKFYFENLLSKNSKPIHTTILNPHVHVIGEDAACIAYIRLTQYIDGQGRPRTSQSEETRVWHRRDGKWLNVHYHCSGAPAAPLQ
Assay [8] deals with T1, Interleukin-1 receptor-associated kinase 4 (Homo sapiens) (UniProt Q9NWZ3).
T1 sequence (whole entry): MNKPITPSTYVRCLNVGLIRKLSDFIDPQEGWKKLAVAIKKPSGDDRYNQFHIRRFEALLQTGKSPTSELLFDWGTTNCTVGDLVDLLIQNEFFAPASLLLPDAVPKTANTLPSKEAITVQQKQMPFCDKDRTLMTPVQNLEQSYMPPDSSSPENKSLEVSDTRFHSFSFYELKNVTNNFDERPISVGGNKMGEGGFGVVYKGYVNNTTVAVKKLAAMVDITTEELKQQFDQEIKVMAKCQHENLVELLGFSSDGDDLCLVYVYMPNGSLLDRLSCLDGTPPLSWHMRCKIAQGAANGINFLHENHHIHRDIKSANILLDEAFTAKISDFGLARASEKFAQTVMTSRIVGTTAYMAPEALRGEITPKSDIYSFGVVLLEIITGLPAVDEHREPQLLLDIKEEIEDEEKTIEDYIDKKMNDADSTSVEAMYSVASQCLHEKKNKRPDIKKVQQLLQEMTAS
In words: Inhibition of human IRAK4 catalytic domain expressed in baculovirus assessed as substrate phosphorylation using fluorescence-labelled peptides as substrate at 95 uM after 90 mins by microfluidic peptide phosphorylation assay.

Assay [9] concerns the target Aurora kinase B (Homo sapiens) (UniProt Q96GD4). In words: Inhibition of human full length AurB expressed in baculovirus assessed as substrate phosphorylation using fluorescence-labelled peptides as substrate at 95 uM after 90 mins by microfluidic peptide phosphorylation assay.
Assay [10] concerns the target Ribosomal protein S6 kinase alpha-1 (Homo sapiens) (UniProt Q15418). In words: Inhibition of human full length RSK1 expressed in baculovirus assessed as substrate phosphorylation using fluorescence-labelled peptides as substrate at 70 uM after 90 mins by microfluidic peptide phosphorylation assay.
For assay [11], the target named is T2, cGMP-dependent protein kinase 1 (Homo sapiens) (UniProt Q13976).
T2 sequence (whole entry): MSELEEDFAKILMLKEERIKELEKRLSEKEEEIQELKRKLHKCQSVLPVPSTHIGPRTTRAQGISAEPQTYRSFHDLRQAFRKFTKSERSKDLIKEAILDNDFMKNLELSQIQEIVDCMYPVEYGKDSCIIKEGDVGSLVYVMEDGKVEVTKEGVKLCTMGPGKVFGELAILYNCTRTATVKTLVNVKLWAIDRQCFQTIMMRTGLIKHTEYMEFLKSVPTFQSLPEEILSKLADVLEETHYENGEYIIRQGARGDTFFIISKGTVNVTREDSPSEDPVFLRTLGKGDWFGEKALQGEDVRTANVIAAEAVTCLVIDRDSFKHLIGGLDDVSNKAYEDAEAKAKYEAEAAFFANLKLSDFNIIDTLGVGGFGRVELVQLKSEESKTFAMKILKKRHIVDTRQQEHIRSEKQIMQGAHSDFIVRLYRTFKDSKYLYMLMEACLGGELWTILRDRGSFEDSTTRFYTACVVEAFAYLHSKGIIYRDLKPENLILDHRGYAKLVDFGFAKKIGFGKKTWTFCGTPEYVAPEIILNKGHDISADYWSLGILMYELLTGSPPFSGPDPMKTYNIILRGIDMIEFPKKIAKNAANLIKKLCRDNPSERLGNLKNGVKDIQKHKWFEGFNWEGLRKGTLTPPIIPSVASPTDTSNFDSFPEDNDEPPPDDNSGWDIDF
Description: Inhibition of human full length PKG-1a expressed in baculovirus assessed as substrate phosphorylation using fluorescence-labelled peptides as substrate at […] after 90 mins by microfluidic peptide phosphorylation assay.

Assay [12] deals with Mitogen-activated protein kinase kinase kinase kinase 4 (Homo sapiens) (UniProt O95819). In words: Inhibition of human HGK catalytic domain expressed in baculovirus assessed as substrate phosphorylation using fluorescence-labelled peptides as substrate at […] after 90 mins by microfluidic peptide phosphorylation assay.
Chain of Mitogen-activated protein kinase kinase kinase kinase 4 (Homo sapiens) (O95819 2-1239 limits assumed): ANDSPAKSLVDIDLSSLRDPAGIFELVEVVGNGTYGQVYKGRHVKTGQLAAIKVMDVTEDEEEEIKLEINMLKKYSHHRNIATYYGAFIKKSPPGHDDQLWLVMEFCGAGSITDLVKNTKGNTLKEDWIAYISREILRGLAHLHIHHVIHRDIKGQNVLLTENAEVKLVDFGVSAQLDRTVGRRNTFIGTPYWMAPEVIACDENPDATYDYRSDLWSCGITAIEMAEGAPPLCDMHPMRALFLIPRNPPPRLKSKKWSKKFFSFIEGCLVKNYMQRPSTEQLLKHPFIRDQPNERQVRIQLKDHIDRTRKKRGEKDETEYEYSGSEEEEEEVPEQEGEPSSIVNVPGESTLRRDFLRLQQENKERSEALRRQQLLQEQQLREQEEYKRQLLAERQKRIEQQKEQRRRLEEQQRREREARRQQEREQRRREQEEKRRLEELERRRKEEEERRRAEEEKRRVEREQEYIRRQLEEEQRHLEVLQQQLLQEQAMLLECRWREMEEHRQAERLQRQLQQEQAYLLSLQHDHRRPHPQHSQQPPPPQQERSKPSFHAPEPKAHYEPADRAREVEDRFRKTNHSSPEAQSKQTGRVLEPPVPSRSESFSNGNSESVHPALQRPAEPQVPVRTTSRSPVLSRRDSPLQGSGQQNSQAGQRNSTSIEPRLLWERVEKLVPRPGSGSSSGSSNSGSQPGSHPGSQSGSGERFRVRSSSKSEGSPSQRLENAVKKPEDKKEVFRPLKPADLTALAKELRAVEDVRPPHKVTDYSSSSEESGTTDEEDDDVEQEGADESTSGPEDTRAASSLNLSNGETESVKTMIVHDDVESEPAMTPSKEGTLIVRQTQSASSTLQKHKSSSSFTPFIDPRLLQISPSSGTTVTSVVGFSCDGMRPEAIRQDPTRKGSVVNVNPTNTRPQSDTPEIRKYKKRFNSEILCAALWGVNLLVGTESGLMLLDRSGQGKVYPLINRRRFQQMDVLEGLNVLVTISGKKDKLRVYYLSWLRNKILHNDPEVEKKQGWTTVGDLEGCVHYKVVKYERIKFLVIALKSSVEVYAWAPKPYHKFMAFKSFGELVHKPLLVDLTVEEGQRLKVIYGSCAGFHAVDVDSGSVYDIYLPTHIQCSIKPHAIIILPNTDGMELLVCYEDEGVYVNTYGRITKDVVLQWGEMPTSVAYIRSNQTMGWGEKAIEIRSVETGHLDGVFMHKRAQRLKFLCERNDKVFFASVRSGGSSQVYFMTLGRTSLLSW
Assay [13] addresses Serine/threonine-protein kinase Chk2 (Homo sapiens) (UniProt O96017). Description: Inhibition of human full length CHK2 expressed in baculovirus assessed as substrate phosphorylation using fluorescence-labelled peptides as substrate at 420 uM after 90 mins by microfluidic peptide phosphorylation assay.
Assay [14] deals with Tyrosine-protein kinase Lck (Homo sapiens) (UniProt P06239). Description: Inhibition of human full length LCK expressed in baculovirus assessed as substrate phosphorylation using fluorescence-labelled peptides as substrate at 420 uM after 90 mins by microfluidic peptide phosphorylation assay.
Chain of Tyrosine-protein kinase Lck (Homo sapiens) (P06239 2-509 limits assumed): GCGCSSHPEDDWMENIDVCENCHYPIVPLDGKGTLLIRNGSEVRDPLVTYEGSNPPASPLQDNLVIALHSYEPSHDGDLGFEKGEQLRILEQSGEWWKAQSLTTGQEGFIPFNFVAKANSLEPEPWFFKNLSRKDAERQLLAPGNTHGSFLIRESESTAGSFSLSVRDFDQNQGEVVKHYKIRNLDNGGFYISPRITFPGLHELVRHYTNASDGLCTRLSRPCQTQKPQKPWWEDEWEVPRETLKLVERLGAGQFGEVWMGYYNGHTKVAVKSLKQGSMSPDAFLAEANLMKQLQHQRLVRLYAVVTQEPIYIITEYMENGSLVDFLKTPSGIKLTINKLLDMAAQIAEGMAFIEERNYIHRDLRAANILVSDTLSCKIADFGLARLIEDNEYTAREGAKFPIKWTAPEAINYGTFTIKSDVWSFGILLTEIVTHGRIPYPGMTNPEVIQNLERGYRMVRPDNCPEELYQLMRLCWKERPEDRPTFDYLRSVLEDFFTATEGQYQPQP

Molecules are shown by their SMILES.

Chain of Ribosomal protein S6 kinase alpha-1 (Homo sapiens) (Q15418 whole entry): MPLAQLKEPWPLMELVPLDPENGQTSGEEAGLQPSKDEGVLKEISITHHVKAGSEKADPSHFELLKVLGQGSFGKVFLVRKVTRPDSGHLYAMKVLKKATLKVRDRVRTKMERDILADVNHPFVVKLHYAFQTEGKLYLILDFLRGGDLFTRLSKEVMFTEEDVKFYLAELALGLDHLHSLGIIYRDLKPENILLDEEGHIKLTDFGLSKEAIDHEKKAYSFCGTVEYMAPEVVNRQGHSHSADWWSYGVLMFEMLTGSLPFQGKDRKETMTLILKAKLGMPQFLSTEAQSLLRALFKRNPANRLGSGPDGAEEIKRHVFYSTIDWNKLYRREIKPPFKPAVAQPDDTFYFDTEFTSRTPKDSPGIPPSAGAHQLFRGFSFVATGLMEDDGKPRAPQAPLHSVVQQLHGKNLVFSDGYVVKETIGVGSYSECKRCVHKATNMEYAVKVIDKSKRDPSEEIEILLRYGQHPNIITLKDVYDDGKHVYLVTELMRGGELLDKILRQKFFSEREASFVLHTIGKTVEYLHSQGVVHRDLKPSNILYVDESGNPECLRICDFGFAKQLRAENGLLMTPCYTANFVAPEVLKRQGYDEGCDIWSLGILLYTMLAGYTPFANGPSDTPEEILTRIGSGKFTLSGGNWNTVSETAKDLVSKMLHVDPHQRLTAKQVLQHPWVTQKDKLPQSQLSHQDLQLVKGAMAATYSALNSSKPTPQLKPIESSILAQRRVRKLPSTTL

As for `NC1CCN(c2ncnc3[nH]ccc23)CC1`, the inhibition in assay [1] is 7.5%.
In the case of `C[C@H](CN(C)C)Oc1nc(Nc2cc3cccc(Cl)c3cn2)cnc1C#N`, the inhibition in assay [2] worked out at 1%; in assay [3], 5.5%.
Turning to `Clc1ccc(C2(c3ccc(-c4ncnc5[nH]cnc45)cc3)CCNCC2)cc1`, in assay [4], the inhibition came to 18%.
Turning to `NC1(Cc2ccc(Cl)cc2)CCN(c2ncnc3[nH]ccc23)CC1`, the inhibition in [5] turned out to be 0%.
Take `NCC1CN(c2ncnc3[nH]c4cnccc4c23)CCO1` (centres undefined): the inhibition in assay [6] is 19.5%.
Consider `NCCc1ccc(-c2ncnc3[nH]cnc23)cc1`, for which the figures for the inhibition in assay [7], in assay [8] and in assay [9] were 30%, 34% and 97%, respectively.
Turning to `CNCc1ccc(-c2ncnc3[nH]cnc23)cc1`, the inhibition in assay [10] was 48%.
As for `COC(=O)c1cnc(Nc2cnc(C#N)cn2)cc1NCC1CCNCC1`, the inhibition in [11] was 4.5%; in assay [12], 3%.
Take `c1nc(N2CCOCC2)c2nc[nH]c2n1`: the inhibition in [13] turned out to be 85%; in assay [14], 67.5%.

The values are drawn from ChEMBL document CHEMBL3132769, “Fragment growing to retain or alter the selectivity of anchored kinase hinge-binding fragments” (Medchemcomm, 2014).
